Laboratory results reported in patent US10422079B2, “Method for preserving recycled fiber by using biocides in paper manufacturing and method for manufacturing paper using recycled fibers” (ECOLAB USA INC., priority 2014, dated 2019).

System: pulp contaminated by the microbes (bacteria)
Assay: Starch degradation in microbe-inoculated recycled-fiber (AOCC) pulp treated with biocides, 5 days (Example 4)
Type: cell-based
Settings: total chlorine 20 ppm, added once a day, combinations 10 ppm + 10 ppm
Method: 150 g standard American Old Corrugated Containers (sometimes called as AOCC) were weighted. The total starch content of the recycled American Old Corrugated Containers was detected according to the same starch measuring method of example 2, and the result was 9.1%.
In the pulping and papermaking process, the above waste paper was cut into pieces and immersed into 15 kilograms water overnight. The obtained sample was disintegrated by Valley Beater for 30 minutes and pulped for 20 minutes, and the pulp concentration thereof is about 1%.
The above obtained pulp was inoculated by the pulp which was contaminated by bacteria in the ratio of one to thousand, followed by cultivating for 3 hours at 37° C. The simulation pulp contaminated by the microbes was obtained to use for the following experiment. The pH, oxidation-reduction potential (ORP), concentration of adenosine triphosphate (ATP) and total number of aerobic bacteria colonies of the pulp which was contaminated initially by the microbes were detected. […]
The above substances were added into the pulps once a day and the concentrations of the total chlorine were maintained at 20 ppm by controlling the addition doses. The whole experiment was conducted for 5 days and the total starches contents were monitored.

OCl [sodium hypochlorite]
starch degradation rate: 5%
